From patent US7459522B2 (Affymax, Inc., priority 1999, dated 2008)
Bridge positions count the residues as written; N and C are the ends. Square brackets hold non-standard residues; d marks the D form. Ends that are not written are not given here. I, II: the chains in the order shown. 1Nal = N[C@@H](Cc1cccc2ccccc12)C(=O)O; βAla = NCCC(=O)O

Key:
[1] = molecular target: EPO receptor; conditions: single class of binding sites, 300 to 600 per cell surface; cited from earlier work
[2] = molecular target: T1, huEPOR (Homo sapiens, UniProt P19235); test: Ba/F3-huEPOR cell proliferation assay; assay type: cell-based; conditions: for EC50: concentration required to produce 50% of the maximal activity obtained with recombinant erythropoietin
T1 construct: expressed in transfected cells; host or cells: Ba/F3 (murine pro-B line, own knowledge) carrying huEPOR
T1 sequence (P19235 25-508): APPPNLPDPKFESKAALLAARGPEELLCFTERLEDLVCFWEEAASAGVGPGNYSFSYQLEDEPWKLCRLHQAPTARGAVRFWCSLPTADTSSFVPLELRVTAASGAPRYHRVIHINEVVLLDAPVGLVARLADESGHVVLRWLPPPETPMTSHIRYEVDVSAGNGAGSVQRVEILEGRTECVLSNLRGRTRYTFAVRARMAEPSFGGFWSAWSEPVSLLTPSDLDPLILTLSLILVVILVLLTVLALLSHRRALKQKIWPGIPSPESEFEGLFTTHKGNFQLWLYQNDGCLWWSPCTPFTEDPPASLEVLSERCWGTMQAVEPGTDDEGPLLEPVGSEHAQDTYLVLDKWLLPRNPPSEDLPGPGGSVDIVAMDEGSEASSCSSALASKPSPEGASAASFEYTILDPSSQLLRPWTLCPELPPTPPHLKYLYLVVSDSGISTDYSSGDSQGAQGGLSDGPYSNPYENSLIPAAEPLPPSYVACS
Text: The protocol for each assay is described in Wrighton et al. (1997) Nature Biotechnology 15:1261-1265, and in U.S. Pat. Nos. 5,773,569 and 5,830,851, both to Wrighton et al. and cited earlier herein.

| Substance | EC50 [2] [nM] | also measured |
| --- | --- | --- |
| Erythropoietin [EPO] | – | Kd [1]: ~0.8 nM |
| I: GGTYSCHFGPLT[1Nal]VCRPQGGK-NH2 / II: GGTYSCHFGPLT[1Nal]VCRPQGG (amide I:21-II:C; cysteines drawn unpaired) [Example 1] | 6 | – |
| I: GGTYSCHFGPLT[1Nal]VCRPQGGK-NH2 / II: GGTYSCHFGPLT[1Nal]VCRPQGG (disulfide I:6-I:15, II:6-II:15; amide I:21-II:C) [Example 6] | – | in vitro bioactivity ([2]; FIG. 5, Isomer 1 compared with Isomer 2, Isomer 3 and the other compounds): noticeably higher |
| I: GGTYSCHFGPLT[1Nal]VCRPQGG[βAla]K-NH2 / II: GGTYSCHFGPLT[1Nal]VCRPQGG[βAla] (amide I:22-II:C; cysteines drawn unpaired) [Example 3] | 5 | – |
